Test results published in patent US20030181436A1, “Treatment for AIDS, HIV, and other related diseases and compounds for use therewith” (priority 2001, published 2003).
Values after ≈ are worked out from the molar mass of the structure shown. Read-outs that look alike come from different tables or passages of the source. One block for each molecule: values may come before it.

Tests used:
Assay type in all cases: cell-based
HIV = assay: PBMC time of addition assay; details: addition after 32 h of infection
Source text: FIGS. 18 and 19 show the results of the time of addition assay with the K and Z compound. In time of addition assays the timed addition of compounds after initial infection allows the identification of specific stages of virus replication. This is seen with the positive control compound AZT. AZT is a reverse transcriptase inhibitor. […] Thus it has an antiviral target that is occurring after completion of reverse transcription. […] In general since this time of addition uses multiple rounds of infection in the PBMCs versus a single round in cell lines systems, lower concentrations of compound will often shift the curve to the left. This is seen in FIG. 18.

[1] = test system: HIV RoJo (a clinical isolate); assay: Chronically infected PBMCs, supernatant reverse transcriptase activity; details: 7 day treatment
Experimental: Reverse transcriptase activity was measured in cell-free supernatants. Tritiated thymidine triphosphate (NEN) (TTP) was resuspended in distilled H2O at 5 Ci/mL. Poly rA and oligo dT were prepared as a stock solution which was kept at −20° C. The RT reaction buffer was prepared fresh on a daily basis and consists of 125 μL 1.0 M EGTA, 125 μL dH2O, 110 μL 10% SDS, 50 μL 1.0 M Tris (pH 7.4), 50 μL, 1.0 M DTT, and 40 μL 1.0 M MgCl2. These three solutions were mixed together in a ratio of 2 parts TTP, 1 part poly rA:oligo dT, and 1 part reaction buffer. Ten microliters of this reaction mixture was placed in a round bottom microtiter plate and 15 μL of virus containing supernatant was added and mixed. The plate was incubated at 37° C. in a water bath with a solid support to prevent submersion of the plate and incubated for 60 minutes. Following reaction, the reaction volume was spotted onto pieces of DE81 paper, washed 5 times for 5 minutes each in a 5% sodium phosphate buffer, 2 times for 1 minute each in distilled water, 2 times for 1 minute each in 70% ethanol, and then dried. Opti-Fluor O was added to each sample and incorporated radioactivity was quantitated utilizing a Wallac 1450 Microbetaplus liquid scintillation counter.
In these studies PBMCs are infected with HIV RoJo (a clinical isolate) and a dynamic population of infected PBMCs established over a period of 2 to 3 weeks. This population of infected PBMCs was established and maintained by the addition of fresh PBMCs in a 1:1 ratio every 7 days, thus overcoming the lost of PBMCs to normal cell death processes. Thus a population of cells was established that consisted of uninfected cells, short lived infected cells and long lived infected cells. In experiments where AZT was added to prevent re-infection of the population, we typically saw a 50% reduction in infection following a 7 day treatment. This means that 50% of the virus production from the infected […] population was due re-infection. […] Thus there was a population of infected PBMCs present ([…] of the total) which survived for extended periods of time and thus met the definition of being chronically infected.

HeLa CD4 LTR B-gal cells = assay: Attachment assay, toxicity on sister plates by MTS; details: for TC50: attachment assay
Experimental: (§1) The attachment assay was performed with the HeLa CD4 LTR B-gal cells available from the AIDS Research and Reference Reagent Repository. […] HeLa CD4 LTR B-gal cells express cell surface CD4 and contain an LTR B-galactosidase reporter construct. Upon infection either the Tat protein incorporated into the virion or new Tat produced following virus integration and transcription trans-activate the LTR B-gal reporter, leading to expression of the B-galactosidase enzyme. HeLa CD4 LTR B-gal cells are routinely cultured with the required selection antibiotics and scrended for mycoplasma contamination. Twenty-four h prior to initiation of the assay cells were trypsinized, counted and 1×10^4 cells placed in a 0.2 cm well in media without selection antibiotics. Media was removed and compound media placed on the cells and incubated for 15 to 30 min at 37° C. A known titer of virus was then added to the wells and the incubation continued for 1 h. At the end of the incubation the wells were washed 6 times with media and the culture continued for 48 h. At 48 h the wells were washed one time with PBS and B-galactosidase enzyme expression determined by chemiluminescence per manufacturers instructions (Tropix Gal-screen TM, Tropix, Bedford, Mass.). Compound toxicity was monitored on sister plates using MTS dye reduction.

[2] = test system: HIV-1 attachment to HeLa CD4 LTR B-gal cells; assay: Inhibition of attachment assay; details: for IC50: attachment assay
Experimental: as §1, with “reduction. (See Tables 14 through 16 and FIGS. 21 and 22).” for “reduction.”

HeLa CD4 LTR β-gal cells = assay: Cytotoxicity for HeLa CD4 LTR β-gal cells
Experimental: At assay termination the assay plates were stained with the soluble tetrazolium-based dye MTS (CellTiter® Reagent, Promega) to determined cell viability and quantify compound toxicity. […] At termination of the assay 20 μL of MTS reagent was added per well. The wells were incubated for 4 h at 37° C., 5% CO2. Adhesive plate scalers were used in place of the lids, the sealed plate was inverted several times to mix the soluble formazan product and the plate was read spectrophotometrically at 490 nm with a 650 nm reference wavelength on a Molecular Devices Vmax plate reader.
This cell line represents one of 3 standard models for performing time of addition assays.

Structure (SMILES): Cc1cn([C@H]2C[C@H](N=[N+]=[N-])[C@@H](CO)O2)c(=O)[nH]c1=O [AZT, reference compound]
effect on virus replication (HIV): no significant effect
reduction in infection [1]: 50%

IC50 ([2]; Human immunodeficiency virus 1, HeLa, read-out: IC50): 0.3 µg/mL (≈ 0.332 µM)
IC50 ([2]; listed as CHICAGO SKY BLUE): IC50 (μG/mL) = 0.30 μg/mL
Structure (SMILES): COc1cc(-c2ccc(/N=N/c3ccc4c(S(=O)(=O)O)cc(S(=O)(=O)O)c(N)c4c3O)c(OC)c2)ccc1/N=N/c1ccc2c(S(=O)(=O)O)cc(S(=O)(=O)O)c(N)c2c1O [Chicago Sky Blue]
% CC (HeLa CD4 LTR B-gal cells; CONC 0.032): 93.3%
TOXICITY VALUES (Cell Titer) MEAN (HeLa CD4 LTR B-gal cells; CONC 0.032): 1.259 O. D.
% CC (HeLa CD4 LTR B-gal cells; CONC 0.1): 80.8%
TOXICITY VALUES (Cell Titer) MEAN (HeLa CD4 LTR B-gal cells; CONC 0.1): 1.090 O. D.
% CC (HeLa CD4 LTR B-gal cells; CONC 0.32): 84.7%
TOXICITY VALUES (Cell Titer) MEAN (HeLa CD4 LTR B-gal cells; CONC 0.32): 1.142 O. D.
% CC (HeLa CD4 LTR B-gal cells; CONC 1): 82.6%
TOXICITY VALUES (Cell Titer) MEAN (HeLa CD4 LTR B-gal cells; CONC 1): 1.115 O. D.
% CC (HeLa CD4 LTR B-gal cells; CONC 3.2): 83.3%
TOXICITY VALUES (Cell Titer) MEAN (HeLa CD4 LTR B-gal cells; CONC 3.2): 1.123 O. D.
% CC (HeLa CD4 LTR B-gal cells; CONC 10): 73.3%
TOXICITY VALUES (Cell Titer) MEAN (HeLa CD4 LTR B-gal cells; CONC 10): 0.989 O. D.
TC50 (HeLa CD4 LTR B-gal cells): >10 µg/mL
TC50 (HeLa CD4 LTR B-gal cells; listed as CHICAGO SKY BLUE): TC50 (μG/mL) = >.10 μg/mL
% VC ([2]; CONC 0.032): 90.6%
RLU (Relative Light Units) MEAN ([2]; CONC 0.032): 127754.7 RLU
% VC ([2]; CONC 0.1): 74.5%
RLU (Relative Light Units) MEAN ([2]; CONC 0.1): 105105.3 RLU
% VC ([2]; CONC 0.32): 48.2%
RLU (Relative Light Units) MEAN ([2]; CONC 0.32): 67955.7 RLU
% VC ([2]; CONC 1): 10.9%
RLU (Relative Light Units) MEAN ([2]; CONC 1): 15363.3 RLU
% VC ([2]; CONC 3.2): 8.3%
RLU (Relative Light Units) MEAN ([2]; CONC 3.2): 11753.3 RLU
% VC ([2]; CONC 10): 8.0%
RLU (Relative Light Units) MEAN ([2]; CONC 10): 11266.7 RLU

Structure (SMILES): C[S+](C)[O-] [DMSO]
% CC (HeLa CD4 LTR β-gal cells; dilution 1:50): 111.0%
TOXICITY VALUES (Cell Titer) MEAN (HeLa CD4 LTR β-gal cells; dilution 1:50): 1.167 O. D.
% CC (HeLa CD4 LTR β-gal cells; dilution 1:1600): 103.2%
TOXICITY VALUES (Cell Titer) MEAN (HeLa CD4 LTR β-gal cells; dilution 1:1600): 1.085 O. D.
% CC (HeLa CD4 LTR β-gal cells; dilution 1:5000): 105.9%
TOXICITY VALUES (Cell Titer) MEAN (HeLa CD4 LTR β-gal cells; dilution 1:5000): 1.113 O. D.
% CC (HeLa CD4 LTR β-gal cells; dilution 1:16000): 99.1%
TOXICITY VALUES (Cell Titer) MEAN (HeLa CD4 LTR β-gal cells; dilution 1:16000): 1.042 O. D.
% CC (HeLa CD4 LTR β-gal cells; dilution 1.500): 101.0%
TOXICITY VALUES (Cell Titer) MEAN (HeLa CD4 LTR β-gal cells; dilution 1.500): 1.062 O. D.
% CC (HeLa CD4 LTR β-gal cells; dilution 11110): 111.0%
TOXICITY VALUES (Cell Titer) MEAN (HeLa CD4 LTR β-gal cells; dilution 11110): 1.167 O. D.
